Where two headings read alike, the source gives them in different places.
Biological target: T1, G protein-coupled receptor 119 (GPR-119) (Mesocricetus auratus, UniProt A0A1U8CD06)
T1 construct: hamster-derived β-cells containing G protein-coupled receptor 119 (GPR-119), HIT-T15 cells; host or cells: HIT-T15 (hamster pancreatic β-cells)
T1 sequence (A0A1U8CD06 1-334): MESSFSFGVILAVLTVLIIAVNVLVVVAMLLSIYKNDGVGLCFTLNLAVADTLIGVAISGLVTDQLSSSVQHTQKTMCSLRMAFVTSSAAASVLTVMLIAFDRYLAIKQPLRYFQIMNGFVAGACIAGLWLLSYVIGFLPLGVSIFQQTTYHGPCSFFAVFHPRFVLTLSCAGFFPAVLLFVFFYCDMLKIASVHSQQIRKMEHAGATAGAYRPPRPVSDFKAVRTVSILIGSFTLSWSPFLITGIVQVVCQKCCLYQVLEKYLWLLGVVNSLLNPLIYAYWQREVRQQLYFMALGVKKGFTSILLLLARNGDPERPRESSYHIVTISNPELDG
Assay: cAMP activity in HIT-T15 cells (cAMP dynamic kit, FRET)
Format: cell-based, hamster
Method in brief: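 Hamster HIT-T15 cells (60,000/well) were treated next day with compound at six concentrations, 0.0032–10 μM, for 1 h at 37° C. Cells were then lysed and cAMP measured by competitive HTRF immunoassay (D2-cAMP, cryptate anti-cAMP). Activity was derived as the change in FRET signal relative to DMSO.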

[1] = 1 hour at 37° C., six concentrations 0.0032 to 10 μM, read-out: EC50

Compound | EC50 [1] [nM] | EC50 (EC50 (nM), 1 hour at 37° C., six concentrations 0.0032 to 10 μM) [nM] | EC50 (EC50 value, Table 2) [nM] | EC50 (Table 2, read-out: EC50 value) [nM]
CCc1cnc(N2CCC(COc3ccc(C4=CCC(C(=O)N5CCC(O)CC5)CC4)cn3)CC2)nc1 (stereo not shown) [Example 353, (4-(6-((1-(5-ethylpyrimidin-2-yl)piperidin-4-yl)methoxy)pyridin-3-yl)cyclohex-3-enyl)(4-hydroxypiperidin-1-yl)methanone] | 58 | – | – | –
CC(C)c1noc(N2CCC(COc3ccc(C4=CCC(C(=O)N5CCC6(CC5)OCCO6)CC4)cc3F)CC2)n1 (stereo not shown) [Example 370, (4-(3-fluoro-4-((1-(3-isopropyl-1,2,4-oxadiazol-5-yl)piperidin-4-yl)methoxy)phenyl)cyclohex-3-enyl)(1,4-dioxa-8-azaspiro[4.5]decan-8-yl)methanone] | – | 15 | ≤ 50 | –
CC(C)c1noc(N2CCC(COc3ccc(C4=CCC(C(=O)N5CCC(=NO)CC5)CC4)cc3F)CC2)n1 (stereo not shown) [Example 411, (4-(3-fluoro-4-((1-(3-isopropyl-1,2,4-oxadiazol-5-yl)piperidin-4-yl)methoxy)phenyl)cyclohex-3-enyl)(4-(hydroxyimino)piperidin-1-yl)methanone] | 15 | – | – | ≤ 50
CC(C)(C)OC(=O)N1CCC(COc2ccc(C3=CCC(C(=O)N4CCC(C#N)CC4)CC3)cc2)CC1 (stereo not shown) [Example 262] | 7 | – | – | ≤ 50
CC(C)(C)OC(=O)N1CCC(COc2ccc(C3=CCC(C(=O)N4CCC(CCO)CC4)CC3)nc2)CC1 (stereo not shown) [Example 326, tert-butyl 4-((6-(4-(4-(2-hydroxyethyl)piperidine-1-carbonyl)cyclohex-1-enyl)pyridin-3-yloxy)methyl)piperidine-1-carboxylate] | 70 | – | – | –
CCN1CCN(C(=O)C2CC=C(c3ccc(OCC4CCN(c5nc(C(C)C)no5)CC4)c(F)c3)CC2)CC1 (stereo not shown) [Example 346, (4-ethylpiperazin-1-yl)(4-(3-fluoro-4-((1-(3-isopropyl-1,2,4-oxadiazol-5-yl)piperidin-4-yl)methoxy)phenyl)cyclohex-3-enyl)methanone] | 100 | – | – | –
CCc1cnc(N2CCC(COc3ccc(C4=CCC(C(=O)N5CCN(C)CC5)CC4)cc3F)CC2)nc1 (stereo not shown) [Example 384, (4-(4-((1-(5-ethylpyrimidin-2-yl)piperidin-4-yl)methoxy)-3-fluorophenyl)cyclohex-3-enyl)(4-methylpiperazin-1-yl)methanone] | 100 | – | – | –
CCN1CCN(C(=O)C2CC=C(c3ccc(OCC4CCN(C(=O)OC(C)(C)C)CC4)cc3)CC2)CC1 (stereo not shown) [Example 203, tert-butyl 4-((4-(4-(4-ethylpiperazine-1-carbonyl)cyclohex-1-enyl)phenoxy)methyl)piperidine-1-carboxylate] | – | – | – | ≤ 50
CCc1cnc(N2CCC(COc3ccc(C4=CCC(C(=O)N5CCN(C(=O)NC(C)C)CC5)CC4)cc3)CC2)nc1 (stereo not shown) [Example 413, 4-(4-(4-((1-(5-ethylpyrimidin-2-yl)piperidin-4-yl)methoxy)phenyl)cyclohex-3-enecarbonyl)-N-isopropylpiperazine-1-carboxamide] | 25 | – | – | ≤ 50
CCc1cnc(N2CCC(COc3ccc(C4=CCC(C(=O)NC5CCC5)CC4)cc3F)CC2)nc1 (stereo not shown) [Example 303, N-cyclobutyl-4-(4-((1-(5-ethylpyrimidin-2-yl)piperidin-4-yl)methoxy)-3-fluorophenyl)cyclohex-3-enecarboxamide] | 29 | – | – | ≤ 50
CCc1cnc(N2CCC(COc3ccc(C4=CCC(C(=O)N5CCSCC5)CC4)cc3C#N)CC2)nc1 (stereo not shown) [Example 389, 2-((1-(5-ethylpyrimidin-2-yl)piperidin-4-yl)methoxy)-5-(4-(thiomorpholine-4-carbonyl)cyclohex-1-enyl)benzonitrile] | 68 | – | – | –
CC(C)=CC(=O)N1CCC(COc2ccc(C3=CCC(C(=O)N4CCOCC4)CC3)cc2F)CC1 (stereo not shown) [Example 451, 1-(4-((2-fluoro-4-(4-(morpholine-4-carbonyl)cyclohex-1-enyl)phenoxy)methyl)piperidin-1-yl)-3-methylbut-2-en-1-one] | 89 | – | – | –
CCc1cnc(N2CCC(COc3ccc(C4=CCC(C(=O)NCCF)CC4)cc3F)CC2)nc1 (stereo not shown) [Example 322, 4-(4-((1-(5-ethylpyrimidin-2-yl)piperidin-4-yl)methoxy)-3-fluorophenyl)-N-(2-fluoroethyl)cyclohex-3-enecarboxamide] | 62 | – | – | –
CC(C)c1noc(N2CCC(COc3ccc(C4=CCC(C(=O)N5CC(O)C5)CC4)cc3F)CC2)n1 (stereo not shown) [Example 334, (4-(3-fluoro-4-((1-(3-isopropyl-1,2,4-oxadiazol-5-yl)piperidin-4-yl)methoxy)phenyl)cyclohex-3-enyl)(3-hydroxyazetidin-1-yl)methanone] | 52 | – | – | –
CCc1cnc(N2CCC(COc3ccc(C4=CCC(C(=O)N5CCOCC5)CC4)cc3F)CC2)nc1 (stereo not shown) [Example 299, (4-(4-((1-(5-ethylpyrimidin-2-yl)piperidin-4-yl)methoxy)-3-fluorophenyl)cyclohex-3-enyl)(morpholino)methanone] | 12 | – | – | ≤ 50
CC(C)c1noc(N2CCC(COc3ccc(C4=CCC(C(=O)N5CCC(CO)CC5)CC4)cc3F)CC2)n1 (stereo not shown) [Example 333, (4-(3-fluoro-4-((1-(3-isopropyl-1,2,4-oxadiazol-5-yl)piperidin-4-yl)methoxy)phenyl)cyclohex-3-enyl)(4-(hydroxymethyl)piperidin-1-yl)methanone] | 30 | – | – | ≤ 50
CC(C)c1noc(N2CCC(COc3ccc(C4=CCC(C(=O)N5CCC(=NO)CC5)CC4)cc3)CC2)n1 (stereo not shown) [Example 276, (4-(hydroxyimino)piperidin-1-yl)(4-(4-((1-(3-isopropyl-1,2,4-oxadiazol-5-yl)piperidin-4-yl)methoxy)phenyl)cyclohex-3-enyl)methanone] | – | – | – | ≤ 50
CCc1cnc(N2CCC(COc3ccc(C4=CCC(C(=O)N5CCC(N6CCCC6)CC5)CC4)cc3F)CC2)nc1 (stereo not shown) [Example 298, (4-(4-((1-(5-ethylpyrimidin-2-yl)piperidin-4-yl)methoxy)-3-fluorophenyl)cyclohex-3-enyl)(4-(pyrrolidin-1-yl)piperidin-1-yl)methanone] | 150 | – | – | –
CC(C)c1noc(N2CCC(COc3ccc(C4=CCC(C(=O)N5CCN(C6CC6)CC5)CC4)cc3F)CC2)n1 (stereo not shown) [Example 369, (4-cyclopropylpiperazin-1-yl)(4-(3-fluoro-4-((1-(3-isopropyl-1,2,4-oxadiazol-5-yl)piperidin-4-yl)methoxy)phenyl)cyclohex-3-enyl)methanone] | 9 | – | – | –
O=C(OC(C(F)(F)F)C(F)(F)F)N1CCC(COc2ccc(C3=CCC(C(=O)N4CCOCC4)CC3)cc2F)CC1 (stereo not shown) [Example 446, 1,1,1,3,3,3-hexafluoropropan-2-yl 4-((2-fluoro-4-(4-(morpholine-4-carbonyl)cyclohex-1-enyl)phenoxy)methyl)piperidine-1-carboxylate] | 20 | – | – | ≤ 50
CCc1cnc(N2CCC(COc3ccc(C4=CCC(C(=O)N5CCC(F)(F)C5)CC4)cc3F)CC2)nc1 (stereo not shown) [Example 459, (3,3-difluoropyrrolidin-1-yl)(4-(4-((1-(5-ethylpyrimidin-2-yl)piperidin-4-yl)methoxy)-3-fluorophenyl)cyclohex-3-enyl)methanone] | 36 | – | – | ≤ 50
CCc1cnc(N2CCC(COc3ccc(C4=CCC(C(=O)N(CCO)CCO)CC4)c(F)c3)CC2)nc1 (stereo not shown) [Example 437, 4-(4-((1-(5-ethylpyrimidin-2-yl)piperidin-4-yl)methoxy)-2-fluorophenyl)-N,N-bis(2-hydroxyethyl)cyclohex-3-enecarboxamide] | 27 | – | – | ≤ 50
CC(C)(C)OC(=O)N1CCC(COc2ccc(C3=CCC(C(=O)N4CCCCC4)CC3)nc2)CC1 (stereo not shown) [Example 311, tert-butyl 4-((6-(4-(piperidine-1-carbonyl)cyclohex-1-enyl)pyridin-3-yloxy)methyl)piperidine-1-carboxylate] | 79 | – | – | –
CC(OC(=O)N1CCC(COc2ccc(C3=CCC(C(=O)N4CCOCC4)CC3)cc2F)CC1)C(F)(F)F (stereo not shown) [Example 440, 1,1,1-trifluoropropan-2-yl 4-((2-fluoro-4-(4-(morpholine-4-carbonyl)cyclohex-1-enyl)phenoxy)methyl)piperidine-1-carboxylate] | 8.7 | – | – | ≤ 50
O=C(Oc1ccccc1)N1CCC(COc2ccc(C3=CCC(C(=O)N4CCOCC4)CC3)cc2F)CC1 (stereo not shown) [Example 445, phenyl 4-((2-fluoro-4-(4-(morpholine-4-carbonyl)cyclohex-1-enyl)phenoxy)methyl)piperidine-1-carboxylate] | 11 | – | – | ≤ 50
CCc1cnc(N2CCC(COc3ccc(C4=CCC(C(=O)N5CCC(C#N)CC5)CC4)cc3F)CC2)nc1 (stereo not shown) [Example 321, 1-(4-(4-((1-(5-ethylpyrimidin-2-yl)piperidin-4-yl)methoxy)-3-fluorophenyl)cyclohex-3-enecarbonyl)piperidine-4-carbonitrile] | 28 | – | – | ≤ 50
CC(C)(C)OC(=O)N1CCC(COc2ccc(C3=CCC(C(=O)N4CCN(CC5CC5)CC4)CC3)cc2)CC1 (stereo not shown) [Example 256, tert-butyl 4-((4-(4-(4-(cyclopropylmethyl)piperazine-1-carbonyl)cyclohex-1-enyl)phenoxy)methyl)piperidine-1-carboxylate] | – | – | – | ≤ 50

Source: patent US10723699B2 (Hyundai Pharm Co., Ltd., priority 2015, dated 2020)
